This passage reports LD50 results from ChEMBL document CHEMBL1121572, “Synthetic and preliminary hemodynamic and whole animal toxicity studies on (R,S)-, (R)-, and (S)-2-methyl-3-(2,4,5-trihydroxyphenyl)alanine” (J Med Chem, 1980).

A short description of the data set: Compound was tested for toxicity (lethal dose) in male white swiss mice. It counts as organism-based. The settings on record: mouse, in vivo.

With `CC(N)(Cc1cc(O)c(O)cc1O)C(=O)O` (racemic), the 50% lethal dose (LD50) (usually the dose expected to kill half of the subjects tested) stood at 289 mg/kg.
As to `CC(N)Cc1cc(O)c(O)cc1O` (racemic), the median lethal dose (LD50) amounted to 320 mg/kg.
Consider `CC(N)Cc1ccc(O)c(O)c1` (racemic), for which the LD50 came out at 576 mg/kg.
The value for `CC(N)(Cc1ccc(O)c(O)c1)C(=O)O` (racemic) [METHYLDOPA (RACEMIC)] was 1320 mg/kg; that for `C[C@](N)(Cc1ccc(O)c(O)c1)C(=O)O` [METHYLDOPA] was 1890 mg/kg.
